Reference: publication PMC3056768, “Conjugation to the Cell-Penetrating Peptide TAT Potentiates the Photodynamic Effect of Carboxytetramethylrhodamine” (PLoS ONE, 2011)
“Also recorded” adds a separate entry of the source.

Key:
red blood cells (RBCs) = settings: for effect of hydrophilic 1O2 scavenger on photohemolysis by TMR-TAT or TMR-riTAT: scavenger up to 50 mM, TMR-TAT or TMR-riTAT 3 µM
Protocol: Whole blood was purchased from Gulf Coast Regional Blood Center (Houston, TX). Erythrocytes were centrifuged for 5 min at 1500 g and the erythrocyte pellet was resuspended with PBS. This was repeated three times to remove plasma and buffy coat. The erythrocytes (50% volume in PBS) were diluted in PBS to a final concentration of 0.25%. Indicated concentration of peptide was added to the medium and the samples were added to the wells of an 8-well chamber glass slide (Nunc). Cells were typically allowed to settle to the bottom of the dish for 5 minutes prior to imaging so as to obtain a layer of cells in the focal plane.
Cells were placed on an inverted epifluorescence microscope (Model IX81, Olympus, Center Valley, PA) equipped with a heating stage maintained at 37°C. The microscope is configured with a spinning disk unit to perform both confocal and wide-field fluorescence microscopy. Images were collected using a Rolera-MGI Plus back-illuminated EMCCD camera (Qimaging, Surrey, BC, Canada). Images were acquired using bright field imaging and two standard fluorescence filter sets: Texas Red (Ex = 560±20 nm/Em = 630±35 nm), and CFP (Ex = 436±10 nm/Em = 480±20 nm). The excitation light was from a 100 W halogen lamp (Olympus USH 1030C) passed through the filter cubes and 40 or 100× objective lenses. Neutral density filters (ND 1, 2, 3, or 4 on the instrument, corresponding to 100, 25, 12.5, or 5% transmittance) and different exposure times were used to modulate the amount of light samples were exposed to. The bright field and fluorescence intensities of cells and ghosts were measured using the SlideBook 4.2 software (Olympus, Center Valley, PA). To determine the percentage of cells stained by SYTOX® Blue, cells were imaged with a 20× objective by phase contrast. Ten to twenty images were acquired for each experiment. The total number of cells in a given image was determined from the phase contrast image while the number of dead cells was determined by identifying cells containing a blue fluorescent nucleus stained by SYTOX® Blue. Cell viability was determined by establishing a ratio of dead cells/total number of cells for each sample (at least 1000 cells were counted in each experiments and each experiments were repeated 3 times).
TMR and TMR containing peptides were used at 2 µM. All experiments were performed by irradiating the samples at 560 nm for 400 msec (∼8 J/cm^2). The data in the histogram represents the average of 4 experiments and the error bars correspond to the standard deviation.

HeLa cells [1] = assay: Photosensitization of extracellular peptide at 4°C (endocytosis blocked); type: cell-based, human; settings: 3 µM, 4°C to block endocytosis, irradiated at 560 nm with compound still in the media
Protocol: (§1) HeLa (human cervical adenocarcinoma), COS-7 (SV40 transformed African green monkey kidney fibroblast-like cell line) were obtained from ATCC. COLO 316 (human ovarian carcinoma) were obtained from Robert Burghardt (Department of Veterinary Integrative Biosciences, Texas A&M University). Cells were cultured in DMEM supplemented with 10% fetal bovine serum (FBS) and maintained at 37°C in a humidified environment with 5% CO2. Cells were plated in 8-well dishes so that the cells were 70% confluent after 24 h, washed 3 times with L-15 media, incubated with 3 to 10 µM peptides at 37°C for 1 h, washed 3 times with L-15, and imaged. Alternatively, cells were incubated in L-15 at 4°C to inhibit the endocytic uptake of peptides. In this case, cells were imaged with the peptide still present in solution and the low temperature was maintained for the entire duration of imaging. For photosensitization, cells were exposed to light (λex = 560±20 nm) for the indicated time points. Plasma membrane disruption was detected by addition of the cell-impermeable DNA stain SYTOX Blue (5 µM) during or after photosensitization.
It is therefore possible that the endosomal release observed in the experiments of Figure 1 might be necessary to cause cell death. To investigate whether this is the case, we examined if light-induced cell-death could be observed when the peptides were only localized at the plasma membrane of cells. For these experiments, HeLa cells were first incubated with the peptides (3 µM) at 4°C to block endocytosis. Cells were then irradiated with the peptides still present in the media (the peptide is not retained at the plasma membrane when cells are washed). […] Cells were then washed and observed by fluorescence imaging. […] On the other hand, the membrane damage and cell death obtained after TMR-TAT photosensitization were also observed when hematoporphyrin (HP) or hematoporphyrin derivative (HPD) were used (Fig. 4B). […]

HeLa cells [2] = assay: Photocytotoxicity of endocytosed peptide after light irradiation (SYTOX Blue staining, membrane blebbing); type: cell-based; settings: for photocytotoxicity / cell death after irradiation at 560 nm: incubation 1 h 37°C (3 µM; TMR-K9 10 µM), irradiated at 560±20 nm
Protocol: as §1
(§2) Ten to twenty images were acquired for each experiment.
Irradiances at the specimen were 100 mW/cm^2 when no neutral density filter and no objective were present in the light path (and, for instance 5 mW/cm^2 when ND4 was inserted). Irradiances were measured using a monochromic photometer (model 840-c, Newport, Irvine, CA). Irradiation area has a diameter of 1.3 cm without objective but the light beam is focused into an area of 3×10^−3 cm^2 by the 100× objective. Irradiances can therefore be approximated to be at […] with ND4 or ND1, respectively. Irradiances provided in the figure legends are based on these calculations. To confirm that the irradiances measured on the microscope were accurate, experiments were also reproduced, when possible, using light illumination with a collimated light source from Oriel (Stratford, CT) equipped with a 500 W Hg lamp. Selective irradiation at 560 nm was performed using an analytical line filter (Oriel, 9.4 nm bandwidth). In this case, irradiances of the light beam (diameter of 2.5 cm) could be measured more precisely using the monochromic photometer.

[3] = cited from earlier work
Description: Upon light irradiation TMR-TAT rapidly and efficiently disrupts the membrane of endosomes. However, in our hands, this activity is also accompanied by the simultaneous destruction of cells. The peptide therefore played the role of a photosensitizer, a molecule able to kill cells upon light irradiation. While multiple cellular events might take place during the photosensitization of the compound, the damage to cellular membranes other than that of endosomes appears to lead to this photocytotoxic effect. The peptide was for instance able to lyse the plasma membrane of HeLa cells as well as the m ...

HeLa cells [4] = assay: Photo-induced endosomal release (fluorescence imaging); type: cell-based, human; settings: washed
Protocol: as §1, §2
The effect of light irradiation on cells that have endocytosed TMR-TAT was first investigated. HeLa cells were incubated in the presence of TMR-TAT (3 µM) for 1 hour at 37°C. After washing the cells, the sample was placed on a microscope and the cellular distribution of the peptide was assessed by fluorescence imaging. […] Within seconds, the content of many endosomes was released into the cell and the peptides were distributed throughout the cell. The peptide also accumulated at the nucleoli, a known effect of TAT [7]. […] The viability of non-irradiated cells was, in contrast, not affected by TMR-TAT (Fig. 2B); we found the cytotoxicity of the peptide to be negligible in the absence of light at concentrations up to 25 µM (supporting information Fig. S1).

HeLa cells [5] = assay: Endocytic uptake (fluorescence of endocytic organelles); type: cell-based, human
Protocol: as §1
Supplementary file pone.0017732.s003.tif: Figure S3 Comparison of the fluorescence intensity of endosomes containing TMR-TAT (incubation at 3 µM) or TMR-K9 (incubation at 10 µM) in the images presented in Figure 1. Imaging was performed in both cases under identical conditions. The fluorescence intensities of all endocytic organelles was measured the Slidebook software. […] (TIF) Click here for additional data file.

5(6)-carboxytetramethylrhodamine [TMR, reference compound]
photohemolysis (lytic effect on RBCs upon light exposure) (red blood cells (RBCs); RBCs 0.25% in PBS, irradiation at 560 nm): no lytic effect | light-induced cell death with peptide only extracellular (HeLa cells [1]): did not die | photocytotoxicity / cell death after irradiation at 560 nm (HeLa cells [2]; washed): did not cause cell death; also recorded: essentially non-cytotoxic

CC1=C(CCC(=O)O)c2cc3[nH]c(cc4nc(cc5[nH]c(cc1n2)c(C)c5C(C)O)C(C)=C4C(C)O)c(C)c3CCC(=O)O (stereo not shown) [HP, hematoporphyrin]
singlet oxygen quantum yield [3]: approximately 0.5 | membrane damage and cell death after photosensitization (HeLa cells [2]; incubated 1 hour, washed with L-15, irradiated at 560 nm): also observed

N[C@@H](Cc1c[nH]cn1)C(=O)O [L-histidine, reference compound]
effect of hydrophilic 1O2 scavenger on photohemolysis by TMR-TAT or TMR-riTAT (red blood cells (RBCs)): no detectable decrease

CC(/C=C/C=C(\C)C(=O)O)=C\C=C\C=C(C)\C=C\C=C(/C)C(=O)O [crocetin, reference compound]
endosomal release of TMR-TAT in the presence of quencher (HeLa cells [4]; TMR-TAT 3 µM with crocetin 50 µM for 1 hour, 560 nm): lesser extent; also recorded: reduced by crocetin but not abolished | effect of quencher on photohemolysis (red blood cells (RBCs); crocetin 50 µM): dramatic reduction | cell death by irradiated TMR-TAT in the presence of quencher (HeLa cells [2]; TMR-TAT 3 µM with crocetin 50 µM for 1 hour, washed, 560 nm): cell-death was not observed; also recorded: not accompanied by membrane blebbing or SYTOX® Blue staining

[N-]=[N+]=[N-].[Na+] [sodium azide, reference compound]
effect of hydrophilic 1O2 scavenger on photohemolysis by TMR-TAT or TMR-riTAT (red blood cells (RBCs)): no detectable decrease

CC(=O)Oc1c(C)c(C)c2c(c1C)CCC(C)(CCC[C@H](C)CCC[C@H](C)CCCC(C)C)O2 (stereo partly drawn) [α-tocopherol acetate]
onset of photosensitization of TMR-TAT in the presence of quencher (HeLa cells [2]; α-tocopherol acetate prior to TMR-TAT incubation and during irradiation): delayed | photo-induced endosomal release and cell death by TMR-TAT in the presence of quencher (HeLa cells [2]; α-tocopherol acetate prior to TMR-TAT incubation and during irradiation, data not shown): still observed

GRKKRRQRRR [TAT, prototypical cell-penetrating peptide TAT, unlabeled]
photocytotoxicity / cell death after irradiation at 560 nm (HeLa cells [2]; washed): did not die

TMR-KKKKKKKKK-NH2 [TMR-K9, 9 positively charged lysine residues labeled with TMR; serves as a control]
endocytic uptake by cells (HeLa cells [5]; 1 h at 37°C, washed, fluorescence imaging (TMR-TAT 3 µM; TMR-K9 higher concentration)): endocytosed by cells | amount present in endocytic organelles (fluorescence intensity) compared with TMR-TAT (HeLa cells [5]; TMR-K9 incubation at 10 µM vs TMR-TAT at 3 µM, identical imaging): equal or greater that that of TMR-TAT | photo-induced endosomal release (photoendosomolytic activity) at 560 nm (HeLa cells [4]; incubation 1 h 37°C (3 µM; TMR-K9 10 µM), irradiated at 560±20 nm): not affected | fold less efficient than TMR-TAT and TMR-riTAT in causing photohemolysis (red blood cells (RBCs); RBCs 0.25% in PBS, 2 µM, 560 nm for 400 msec (~8 J/cm^2), average of 4 experiments): 5 fold | light-induced cell death with peptide only extracellular (HeLa cells [1]): did not die | photocytotoxicity / cell death after irradiation at 560 nm (HeLa cells [2]; washed): remain viable; also recorded: no photocytoxicity; also recorded: essentially non-cytotoxic
